Values quoted from earlier work as cited in patent publication US12220388B2, “Uses of curcuminoid compositions” (Givaudan France Naturals SAS, priority 2018, dated 2025).

System: Caco-2 cells

predicted absorption in humans (from correlation of Caco-2 Papp with human absorption in vivo): 0-20% | Papp (apparent permeability coefficient) (in vitro human intestinal cells model): 1 nm/s
Structure (SMILES): COc1cc(/C=C/C(=O)CC(=O)/C=C/c2ccc(O)c(OC)c2)ccc1O [curcumin]
